In ChEMBL document CHEMBL1150618, “Isotactic polymethoxydienes from the Philippines sponge Myriastra clavosa” (J Nat Prod, 2002):

These compounds were tested on HCT-116 (assay: Cytotoxicity against human HCT116 cells).
Format: functional, cell-based
Work on `C=CC[C@@H](C[C@@H](C[C@@H](C[C@@H](C[C@@H](C[C@@H](C[C@@H](C[C@@H](C[C@H](OC)/C(C)=C/CCCCC)OC)OC)OC)OC)OC)OC)OC)OC` yielded an IC50 of 86 µM. `C=CC[C@@H](C[C@@H](C[C@@H](C[C@@H](C[C@@H](C[C@@H](C[C@@H](C[C@@H](C[C@@H](C[C@H](OC)/C(C)=C/CCCCC)OC)OC)OC)OC)OC)OC)OC)OC)OC` gave an IC50 of 75 µM. Work on `C=CC[C@@H](C[C@@H](C[C@@H](C[C@@H](C[C@@H](C[C@@H](C[C@H](OC)/C(C)=C/CCCCC)OC)OC)OC)OC)OC)OC` yielded an IC50 of 119 µM. Compound `C=CC[C@@H](C[C@@H](C[C@@H](C[C@@H](C[C@@H](C[C@@H](C[C@@H](C[C@H](OC)/C(C)=C/CCCCC)OC)OC)OC)OC)OC)OC)OC` has an IC50 of 106 µM. For `C=CC[C@@H](C[C@@H](C[C@@H](C[C@@H](C[C@@H](C[C@@H](C[C@@H](C[C@@H](C[C@@H](C[C@@H](C[C@H](OC)/C(C)=C/CCCCC)OC)OC)OC)OC)OC)OC)OC)OC)OC)OC`, the IC50 was 92 µM.
